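Grown in 96-well plates, cells were treated for 48 hours with each compound at five concentrations. Insufficient inhibition: endpoint recorded as highest concentration tested. GI50: concentration for 50% inhibition of growth.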 Calls of active or inactive are those of the source. Cut-off read from the data, not from the text of the source: active = GI50 up to about 1.1 µM and inactive = higher.
What was measured:
Experiment in all cases: growth of human tumour cells (NCI), 48 h
786-0 = tested on: 786-0
CAKI-1 = tested on: CAKI-1
COLO 205 = tested on: COLO 205
DMS-114 = tested on: DMS-114
DMS-273 = tested on: DMS-273
EKVX = tested on: EKVX
HCT-116 = tested on: HCT-116
HCT-15 = tested on: HCT-15
HOP-18 = tested on: HOP-18
HOP-92 = tested on: HOP-92
HT-29 = tested on: HT-29
KM12 = tested on: KM12
LOX IMVI = tested on: LOX IMVI
LXFL 529 = tested on: LXFL 529
NCI-H226 = tested on: NCI-H226
NCI-H23 = tested on: NCI-H23
OVCAR-4 = tested on: OVCAR-4
OVCAR-8 = tested on: OVCAR-8
RPMI-8226 = tested on: RPMI-8226
SF-268 = tested on: SF-268
SF-295 = tested on: SF-295
SF-539 = tested on: SF-539
SK-OV-3 = tested on: SK-OV-3
SNB-19 = tested on: SNB-19
U-251 = tested on: U-251
UO-31 = tested on: UO-31
XF498 = tested on: XF498
A549 = tested on: A549
ACHN = tested on: ACHN
CCRF-CEM = tested on: CCRF-CEM
DLD-1 = tested on: DLD-1
HCC 2998 = tested on: HCC 2998
HL-60 = tested on: HL-60
HOP-62 = tested on: HOP-62
IGROV-1 = tested on: IGROV-1
K562 = tested on: K562
KM-20L2 = tested on: KM-20L2
M19-MEL = tested on: M19-MEL
MOLT-4 = tested on: MOLT-4
Malme-3M = tested on: Malme-3M
NCI-H460 = tested on: NCI-H460
NCI-H522 = tested on: NCI-H522
OVCAR-3 = tested on: OVCAR-3
OVCAR-5 = tested on: OVCAR-5
RXF 393 = tested on: RXF 393
SK-MEL-28 = tested on: SK-MEL-28
SK-MEL-2 = tested on: SK-MEL-2
SK-MEL-5 = tested on: SK-MEL-5
SN12C = tested on: SN12C
SR = tested on: SR
SW-620 = tested on: SW-620
TK-10 = tested on: TK-10
UACC-257 = tested on: UACC-257
UACC-62 = tested on: UACC-62
A498 = tested on: A498
BT-549 = tested on: BT-549
DU-145 = tested on: DU-145
Hs-578T = tested on: Hs-578T
M14 = tested on: M14
MCF7 = tested on: MCF7
MDA-MB-231 = tested on: MDA-MB-231
MDA-MB-435 = tested on: MDA-MB-435
MDA-N = tested on: MDA-N
NCI/ADR-RES = tested on: NCI/ADR-RES
PC-3 = tested on: PC-3
SNB-75 = tested on: SNB-75
T47D = tested on: T47D
SNB-78 = tested on: SNB-78

Measured: GI50

O=c1c2cc(O)ccc2n2nnc3ccc(NCCNCCO)c1c32
inactive: 786-0 4.86 µM | CAKI-1 5.68 µM | COLO 205 5.33 µM | DMS-114 2.28 µM | DMS-273 9.18 µM | EKVX 26.2 µM | HCT-116 4.62 µM | HOP-18 26.9 µM | HOP-92 3.49 µM | HT-29 8.77 µM | KM12 20.2 µM | LOX IMVI 3.23 µM | LXFL 529 3.2 µM | NCI-H226 2.6 µM | NCI-H23 11.7 µM | OVCAR-4 5.09 µM | OVCAR-8 3.53 µM | RPMI-8226 17.1 µM | SF-268 1.39 µM | SF-295 15.2 µM | SF-539 4.56 µM | SK-OV-3 5.08 µM | SNB-19 4.09 µM | U-251 1.27 µM | UO-31 26.9 µM | XF498 1.71 µM
77.8 µM: HCT-15

COC(=O)C(=Cc1cc(OC)c(OC)c(OC)c1-c1cc2c(cc1C(C)=O)OCO2)C(=O)OC
24.2 µM: HCT-15
inactive: 786-0 33.1 µM | A549 55.6 µM | ACHN 46.8 µM | CAKI-1 54.3 µM | CCRF-CEM 30.6 µM | COLO 205 35.3 µM | DLD-1 26.1 µM | DMS-114 37.5 µM | DMS-273 30.7 µM | EKVX 72.8 µM | HCC 2998 40.3 µM | HCT-116 32.2 µM | HL-60 34.2 µM | HOP-18 52.6 µM | HOP-62 36.8 µM | HOP-92 44 µM | HT-29 40.6 µM | IGROV-1 50.1 µM | K562 37.6 µM | KM-20L2 34.3 µM | KM12 32.2 µM | LOX IMVI 30.8 µM | LXFL 529 33.8 µM | M19-MEL 34.6 µM | MOLT-4 52.2 µM | Malme-3M 38.7 µM | NCI-H226 50.9 µM | NCI-H23 34.7 µM | NCI-H460 62.8 µM | NCI-H522 28.5 µM | OVCAR-3 26.5 µM | OVCAR-5 43 µM | OVCAR-8 59 µM | RPMI-8226 35.5 µM | RXF 393 33.7 µM | SF-268 57.1 µM | SF-295 48.5 µM | SF-539 43.8 µM | SK-MEL-28 33.1 µM | SK-MEL-2 32.4 µM | SK-MEL-5 32.7 µM | SK-OV-3 71.9 µM | SN12C 27.7 µM | SNB-19 39 µM | SR 50.4 µM | SW-620 46.1 µM | TK-10 77.8 µM | U-251 37.2 µM | UACC-257 52 µM | UACC-62 32.6 µM | XF498 27.4 µM

O=S(=O)(c1ccccc1)C1CN(Cc2ccccc2)CCN(Cc2ccccc2)C1
25 µM: HCT-15
inactive: 786-0 > 74 µM | A498 > 100 µM | A549 39.7 µM | ACHN 39.4 µM | BT-549 80.5 µM | CAKI-1 24.4 µM | CCRF-CEM 5.14 µM | COLO 205 30 µM | DLD-1 12.1 µM | DMS-114 10 µM | DMS-273 12.7 µM | DU-145 80.5 µM | EKVX 36.7 µM | HCC 2998 > 78 µM | HCT-116 18.1 µM | HL-60 5.92 µM | HOP-62 > 76.2 µM | HT-29 24.5 µM | Hs-578T 37.2 µM | IGROV-1 35.8 µM | K562 5.97 µM | KM-20L2 35.2 µM | KM12 58.3 µM | LOX IMVI 6.25 µM | LXFL 529 11.3 µM | M14 24.2 µM | M19-MEL 14.4 µM | MCF7 36.8 µM | MDA-MB-231 39.2 µM | MDA-MB-435 20.9 µM | MDA-N 6.46 µM | MOLT-4 7.24 µM | Malme-3M 25.5 µM | NCI-H226 > 53.6 µM | NCI-H23 15.7 µM | NCI-H460 26.7 µM | NCI-H522 8 µM | NCI/ADR-RES 17.9 µM | OVCAR-3 26.6 µM | OVCAR-4 9.79 µM | OVCAR-5 > 100 µM | OVCAR-8 14.4 µM | PC-3 8.71 µM | RPMI-8226 4.55 µM | RXF 393 10.4 µM | SF-268 29.4 µM | SF-295 73.8 µM | SF-539 77.6 µM | SK-MEL-28 > 71 µM | SK-MEL-2 36.8 µM | SK-MEL-5 18.6 µM | SK-OV-3 > 71.6 µM | SN12C 32.4 µM | SNB-19 > 60.4 µM | SNB-75 61.5 µM | SR 7.76 µM | SW-620 24 µM | T47D 30 µM | TK-10 63.4 µM | U-251 33 µM | UACC-257 26.6 µM | UACC-62 11.4 µM | UO-31 19.3 µM | XF498 18.8 µM

COc1cc2cc3c4c(cc(OC)c(OC)c4c2cc1OC)CCN3C(=O)OCCBr
active: NCI-H226 0.259 µM
inactive: 786-0 55.8 µM | A498 19.8 µM | A549 28 µM | ACHN 50.9 µM | CAKI-1 41.9 µM | CCRF-CEM 20.6 µM | COLO 205 78 µM | DLD-1 45.5 µM | DMS-273 50.2 µM | EKVX 10.1 µM | HCC 2998 42.3 µM | HCT-116 50.9 µM | HL-60 39.1 µM | HOP-92 39.1 µM | HT-29 50.1 µM | IGROV-1 > 100 µM | KM-20L2 43.4 µM | KM12 60.7 µM | LOX IMVI 32.7 µM | M19-MEL 81.8 µM | MOLT-4 27.8 µM | Malme-3M > 100 µM | NCI-H23 81.7 µM | NCI-H460 33.2 µM | NCI-H522 37.6 µM | OVCAR-3 > 100 µM | OVCAR-5 > 100 µM | OVCAR-8 > 100 µM | RXF 393 42.5 µM | SF-268 > 100 µM | SF-295 > 100 µM | SF-539 22.4 µM | SK-MEL-28 > 100 µM | SK-MEL-2 > 100 µM | SK-MEL-5 53.1 µM | SK-OV-3 > 100 µM | SN12C 45 µM | SNB-19 > 100 µM | SNB-75 46 µM | SNB-78 > 100 µM | SR 18.7 µM | SW-620 60.8 µM | TK-10 > 100 µM | U-251 > 100 µM | UACC-257 > 100 µM | UACC-62 60.4 µM | UO-31 > 100 µM | XF498 > 100 µM
60 µM: HCT-15

CCOC(=O)c1ccn2c(c1)c(C#N)c1nc3ccccc3nc12
active: UACC-62 0.908 µM
41.6 µM: HCT-15
inactive: 786-0 > 100 µM | A498 85.5 µM | A549 50.1 µM | ACHN 55.5 µM | CAKI-1 54.5 µM | CCRF-CEM 18.5 µM | COLO 205 48.2 µM | DLD-1 27.4 µM | DMS-114 52.2 µM | DMS-273 37.2 µM | EKVX 70.6 µM | HCC 2998 53.1 µM | HCT-116 46.8 µM | HL-60 38.8 µM | HOP-62 > 100 µM | IGROV-1 5.4 µM | K562 33.9 µM | KM-20L2 71.9 µM | KM12 51.6 µM | LOX IMVI 29.2 µM | LXFL 529 31.6 µM | M14 > 100 µM | M19-MEL 61.8 µM | MOLT-4 18.1 µM | Malme-3M 76 µM | NCI-H23 37.2 µM | NCI-H460 28.6 µM | NCI-H522 45.3 µM | OVCAR-3 > 100 µM | OVCAR-4 91 µM | OVCAR-5 > 100 µM | OVCAR-8 32.1 µM | RPMI-8226 43.6 µM | SF-268 > 100 µM | SF-539 > 100 µM | SK-MEL-28 > 100 µM | SK-MEL-2 > 100 µM | SK-MEL-5 35.6 µM | SK-OV-3 55.1 µM | SN12C 83.8 µM | SNB-19 61 µM | SNB-75 13.3 µM | SNB-78 15.5 µM | SR 32.6 µM | SW-620 50 µM | TK-10 75.9 µM | U-251 76.7 µM | UACC-257 > 100 µM | UO-31 42.4 µM | XF498 33.7 µM

Reference: ChEMBL document CHEMBL1201862, “PubChem BioAssay data set” (2004)
